# Entries after “also recorded” stand apart in the source; their conditions may differ.
# Assays:
# [1] = system: actin cytoskeleton of HeLa cells; assay: HeLa cell microfilament; format: cell-based, human; conditions: 24 h, result in words
# HCT-116 cells = conditions: read-out: IC50 against HCT-116 cells, cytotoxicity; cited from earlier work
# microfilaments = conditions: result in words; cited from earlier work
molecule,measurement,setting,value
"C/C1=C\[C@H](C)C[C@H](C)OC(=O)C[C@H](c2ccc(O)cc2)NC(=O)[C@@H](Cc2c(Br)[nH]c3ccccc23)N(C)C(=O)[C@H](C)NC(=O)[C@@H](C)C1 [Compound 1, jasplakinolide]",microfilament disruption at 80 nM,[1],exhibited microfilament disruption
"C=C1C[C@H](C)C(=O)N[C@@H](C)C(=O)N(C)[C@H](Cc2c(Br)[nH]c3ccccc23)C(=O)N[C@@H](c2ccc(O)cc2)CC(=O)O[C@@H](C)C[C@@H](C)C1=O [Compound 11, jasplakinolide B]",microfilament disruption at 80 nM,[1],without microfilament disruption; also recorded: without MF disruption; also recorded: did not exhibit microfilament-disrupting activity
18-epi-latrunculol,IC50,HCT-116 cells,2100 nM
same,MF disruption at 5 µM,microfilaments,without MF disruption
jasplakinolide F [Compound 4],microfilament disruption at 80 nM,[1],exhibited microfilament disruption
